Broadly, the Ki is the dissociation constant of the complex between target and ligand, obtained from inhibition or displacement.

25 compounds from patent US8461328B2, “Tricyclic heterocyclic compounds, compositions and methods of use thereof” (Genentech, Inc., priority 2010, dated 2013) can be followed below.

Holding throughout (format): biochemical
For one assay, the target named is T1, JAK1 (Homo sapiens, UniProt P23458).
T1 construct: made in house; host or cells: SF9 insect cells (baculovirus)
T1 sequence (P23458 852-1154): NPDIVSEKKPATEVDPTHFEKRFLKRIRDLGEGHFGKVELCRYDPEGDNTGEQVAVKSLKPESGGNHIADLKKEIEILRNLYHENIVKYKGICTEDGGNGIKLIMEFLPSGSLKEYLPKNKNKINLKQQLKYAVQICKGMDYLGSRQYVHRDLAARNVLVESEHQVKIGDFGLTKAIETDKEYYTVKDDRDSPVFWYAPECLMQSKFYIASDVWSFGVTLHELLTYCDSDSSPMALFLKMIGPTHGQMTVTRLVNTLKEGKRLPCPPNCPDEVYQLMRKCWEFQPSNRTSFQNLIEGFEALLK
The assay is described as follows: JAK1 inhibition (Table 4). To be noted: read-out: JAK1 Ki.

For another assay, the target named is T2, JAK2 (Homo sapiens, UniProt O60674).
T2 construct: made in house; host or cells: SF9 insect cells (baculovirus)
T2 sequence (O60674 812-1132): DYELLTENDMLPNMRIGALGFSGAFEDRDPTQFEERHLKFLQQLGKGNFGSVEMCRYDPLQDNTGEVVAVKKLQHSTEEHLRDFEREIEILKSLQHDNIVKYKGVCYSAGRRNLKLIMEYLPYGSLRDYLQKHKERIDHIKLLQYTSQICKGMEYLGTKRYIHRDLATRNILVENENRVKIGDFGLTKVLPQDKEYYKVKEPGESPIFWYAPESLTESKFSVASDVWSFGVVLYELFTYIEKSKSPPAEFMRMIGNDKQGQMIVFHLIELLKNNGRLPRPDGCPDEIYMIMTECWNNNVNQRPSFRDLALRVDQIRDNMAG
The assay is described as follows: JAK2 inhibition (Table 4). To be noted: read-out: JAK2 Ki.

The target in the next assay is T3, JAK3 (Homo sapiens, UniProt P52333).
T3 construct: made in house; host or cells: SF9 insect cells (baculovirus)
T3 sequence (P52333 783-1124): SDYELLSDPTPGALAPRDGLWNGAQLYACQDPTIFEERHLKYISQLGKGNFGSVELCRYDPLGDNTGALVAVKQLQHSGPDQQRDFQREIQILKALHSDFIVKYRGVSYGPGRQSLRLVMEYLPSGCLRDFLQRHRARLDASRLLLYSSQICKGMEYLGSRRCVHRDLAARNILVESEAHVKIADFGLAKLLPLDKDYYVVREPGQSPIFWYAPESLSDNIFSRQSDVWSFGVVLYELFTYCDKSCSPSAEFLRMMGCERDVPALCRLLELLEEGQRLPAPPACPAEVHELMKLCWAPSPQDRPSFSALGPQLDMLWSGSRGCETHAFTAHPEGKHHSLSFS
The assay is described as follows: JAK3 inhibition (Table 4). To be noted: read-out: JAK3 Ki.

The next assay addresses T4, TYK2 (Homo sapiens, UniProt P29597).
T4 construct: made in house; host or cells: SF9 insect cells (baculovirus)
T4 sequence (P29597 873-1187): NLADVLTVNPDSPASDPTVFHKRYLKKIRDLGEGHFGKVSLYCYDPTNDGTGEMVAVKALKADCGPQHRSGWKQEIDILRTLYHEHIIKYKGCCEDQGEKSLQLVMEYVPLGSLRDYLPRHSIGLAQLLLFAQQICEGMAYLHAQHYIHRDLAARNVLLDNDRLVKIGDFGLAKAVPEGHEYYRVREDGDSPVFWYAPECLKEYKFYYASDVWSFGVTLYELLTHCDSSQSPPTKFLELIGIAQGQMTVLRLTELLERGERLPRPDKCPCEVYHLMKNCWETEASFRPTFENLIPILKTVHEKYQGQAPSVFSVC
The experiment in a line: TYK2 inhibition (Table 4).

With `O=S1(=O)CCCN1CCc1nc2cnc3[nH]ccc3c2n1C1CCCCC1` [Example 922, 1-Cyclohyl-2-[2-(1,1-dioxo-1-isothiazolidin-2-yl)-ethyl]-1,6-dihydro-1,3,5,6-tetraaza-as-indacene], the Ki on JAK1 amounted to 0.0133 µM; on JAK2, 0.0498 µM; at JAK3, 0.0516 µM; on TYK2, 0.146 µM.

As for `C[C@@H](O)c1nc2cnc3[nH]ccc3c2n1C1CCN(Cc2ncco2)CC1` [Example 923, (R)-1-[1-(1-Oxazol-2-ylmethyl-piperidin-4-yl)-1,6-dihydro-1,3,5,6-tetraaza-as-indacen-2-yl]-ethanol], the Ki is 0.0171 µM at JAK1, 0.15 µM on JAK2, 0.0374 µM at JAK3 and 0.363 µM on TYK2.

With `O=C(NCc1nc2cnc3[nH]ccc3c2n1C1CCCCC1)C1CCC1` [Example 924, Cyclobutanecarboxylic acid (1-cyclohyl-1,6-dihydro-1,3,5,6-tetraaza-as-indacen-2-ylmethyl)-amide], the inhibitory constant (Ki) was 0.0177 µM on JAK1, 0.0957 µM on JAK2, 0.0541 µM at JAK3 and 0.0725 µM at TYK2.

Consider `CS(=O)(=O)NCc1nc2cnc3[nH]ccc3c2n1C1CC2CCC1O2` (stereo not shown) [Example 925, N-[1-(7-Oxa-bicyclo[2.2.1]hept-2-yl)-1,6-dihydro-1,3,5,6-tetraaza-as-indacen-2-ylmethyl]-methanesulfonamide], for which the Ki was determined as 0.03 µM on JAK1, 0.252 µM at JAK2, 0.555 µM on JAK3 and 0.338 µM on TYK2.

As for `C[C@@H](O)c1nc2cnc3[nH]ccc3c2n1[C@H]1CCNC1` [Example 926, (R)-1-((S)-1-Pyrrolidin-3-yl-1,6-dihydro-1,3,5,6-tetraaza-as-indacen-2-yl)-ethanol], the Ki on JAK1 was found to be 0.0352 µM; at JAK2, 2.47 µM; at JAK3, 1.15 µM; at TYK2 it was 1.6 µM.

Consider `CCOC(=O)N1CCC(n2c([C@@H](C)O)nc3cnc4[nH]ccc4c32)CC1` [Example 927], for which the Ki at JAK1 is 0.176 µM; on JAK2, 0.613 µM; on JAK3 it was 0.383 µM; at TYK2, 0.711 µM.

Turning to `Cc1nc2cnc3[nH]ccc3c2n1C1CN2CCC1CC2` (stereo not shown) [Example 928, 1-(1-Aza-bicyclo[2.2.2]oct-3-yl)-2-methyl-1,6-dihydro-1,3,5,6-tetraaza-as-indacene], the Ki at JAK1 came out at 0.125 µM; at JAK2, 0.206 µM; on JAK3, 0.449 µM; at TYK2 it was 0.887 µM.

Regarding `COC(=O)N1CCC(n2c([C@@H](C)O)nc3cnc4[nH]ccc4c32)CC1` [Example 929, 4-[2-((R)-1-Hydroxy-ethyl)-6H-1,3,5,6-tetraaza-as-indacen-1-yl]-piperidine-1-carboxylic acid methyl ester], the Ki on JAK1 came out at 0.106 µM; at JAK2, 0.578 µM; at JAK3, 0.185 µM; at TYK2, 0.281 µM.

Turning to `C[C@@H](O)c1nc2cnc3[nH]ccc3c2n1[C@H]1CCN(S(C)(=O)=O)C1` [Example 930, (R)-1-[1-((S)-1-Methanesulfonyl-pyrrolidin-3-yl)-1,6-dihydro-1,3,5,6-tetraaza-as-indacen-2-yl]-ethanol], the Ki on JAK1 was 0.0872 µM; at JAK2, 0.95 µM; at JAK3, 0.19 µM; on TYK2, 0.347 µM.

Regarding `CCOC(=O)N1CC[C@H](n2c([C@@H](C)O)nc3cnc4[nH]ccc4c32)C1` [Example 931, (S)-3-[2-((R)-1-Hydroxy-ethyl)-6H-1,3,5,6-tetraaza-as-indacen-1-yl]-pyrrolidine-1-carboxylic acid ethyl ester], the Ki was 0.0651 µM at JAK1, 1.86 µM on JAK2, 0.904 µM at JAK3 and 0.232 µM at TYK2.

Take `OC1CCN(Cc2nc3cnc4[nH]ccc4c3n2C2CCCCC2)CC1` [Example 932, 1-(1-Cyclohyl-1,6-dihydro-1,3,5,6-tetraaza-as-indacen-2-ylmethyl)-piperidin-4-ol]: the Ki turned out to be 0.041 µM at JAK1, 0.579 µM on JAK2, 1.05 µM on JAK3 and 0.357 µM at TYK2.

As to `CC(O)c1nc2cnc3[nH]ccc3c2n1C1CCN(Cc2cnco2)CC1F` (stereo not shown) [Example 933, 1-[1-(3-Fluoro-1-oxazol-5-ylmethyl-piperidin-4-yl)-1,6-dihydro-1,3,5,6-tetraaza-as-indacen-2-yl]-ethanol], the inhibition constant (Ki) on JAK1 is 0.00184 µM; on JAK2 it was 0.0385 µM; at JAK3 it was 0.0112 µM; on TYK2, 0.0545 µM.

With `CC(O)CN1CCC(n2c(C(C)O)nc3cnc4[nH]ccc4c32)CC1` (stereo not shown) [Example 934, 1-{4-[2-(1-Hydroxy-ethyl)-6H-1,3,5,6-tetraaza-as-indacen-1-yl]-piperidin-1-yl}-propan-2-ol], the inhibition constant Ki at JAK1 was determined as 0.0129 µM; on JAK2, 0.669 µM; at JAK3, 0.549 µM; at TYK2, 0.465 µM.

On to `Cc1noc(CN2CC[C@H](n3c([C@@H](C)O)nc4cnc5[nH]ccc5c43)C2)n1` [Example 935, (R)-1-{1-[(S)-1-(3-Methyl-[1,2,4]oxadiazol-5-ylmethyl)-pyrrolidin-3-yl]-1,6-dihydro-1,3,5,6-tetraaza-as-indacen-2-yl}-ethanol], for which the Ki on JAK1 stood at 0.0655 µM; at JAK2 it was 1.06 µM; at JAK3 it was 0.394 µM; at TYK2 it was 0.542 µM.

As for `CC(O)c1nc2cnc3[nH]ccc3c2n1C1CC2CCC1O2` (stereo not shown) [Example 938, 1-[1-(7-Oxa-bicyclo[2.2.1]hept-2-yl)-1,6-dihydro-1,3,5,6-tetraaza-as-indacen-2-yl]-ethanol], the Ki on JAK1 turned out to be 0.0883 µM; on JAK2, 0.263 µM; at JAK3, 0.119 µM; at TYK2, 0.175 µM.

With `C[C@@H](O)c1nc2cnc3[nH]ccc3c2n1C1CC2CCC1C2` (stereo partly drawn) [Example 943, (R)-1-(1-Bicyclo[2.2.1]hept-2-yl-1,6-dihydro-1,3,5,6-tetraaza-as-indacen-2-yl)-ethanol], the Ki turned out to be 0.00057 µM at JAK1, 0.00822 µM at JAK2, 0.0187 µM on JAK3 and 0.00292 µM at TYK2.

For `c1cc2c(ncc3ncn([C@H]4[C@@H]5CNC[C@@H]54)c32)[nH]1` [Example 944, (1R,5S,6S)-1-(3-Aza-bicyclo[3.1.0]hex-6-yl)-1,6-dihydro-1,3,5,6-tetraaza-as-indacene], the Ki on JAK1 was determined as 0.229 µM; on JAK2 it was 0.886 µM; on JAK3 it was 2.44 µM; on TYK2, 1.81 µM.

Regarding `Cn1ncc2c1CC[C@H](n1cnc3cnc4[nH]ccc4c31)C2` [Example 954, 1-((S)-1-Methyl-4,5,6,7-tetrahydro-1H-indazol-5-yl)-1,6-dihydro-1,3,5,6-tetraaza-as-indacene], the Ki on JAK1 amounted to 0.0399 µM; on JAK2 it was 0.0976 µM; on JAK3 it was 0.344 µM; at TYK2, 0.338 µM.

In the case of `Cn1ncc2c1CC[C@@H](n1cnc3cnc4[nH]ccc4c31)C2` [Example 955, 1-((R)-1-Methyl-4,5,6,7-tetrahydro-1H-indazol-5-yl)-1,6-dihydro-1,3,5,6-tetraaza-as-indacene], the Ki is 0.00767 µM on JAK1, 0.0089 µM on JAK2, 0.109 µM at JAK3 and 0.0536 µM at TYK2.

Consider `CC(C)(O)[C@H]1CC[C@@H](n2cnc3cnc4[nH]ccc4c32)CC1` [Example 957, Cis-2-[4-(6H-1,3,5,6-Tetraaza-as-indacen-1-yl)-cyclohexyl]-propan-2-ol], for which the Ki was found to be 0.05 µM at JAK1, 0.0602 µM on JAK2, 0.21 µM at JAK3 and 0.174 µM at TYK2.

With `N#CCCn1ncc2c1CC[C@H](n1cnc3cnc4[nH]ccc4c31)C2` [Example 959, 3-[(S)-5-(6H-1,3,5,6-Tetraaza-as-indacen-1-yl)-4,5,6,7-tetrahydro-indazol-1-yl]-propionitrile], the Ki came to 0.00463 µM at JAK1, 0.0063 µM at JAK2, 0.0865 µM at JAK3 and 0.038 µM at TYK2.

`N#CCCn1ncc2c1CC[C@@H](n1cnc3cnc4[nH]ccc4c31)C2` [Example 992, 3-[(R)-5-(6H-1,3,5,6-Tetraaza-as-indacen-1-yl)-4,5,6,7-tetrahydro-indazol-1-yl]-propionitrile]: the Ki stood at 0.0178 µM at JAK1, 0.0373 µM at JAK2, 0.253 µM at JAK3 and 0.108 µM at TYK2.

For the compound `CC1(O)CCC(n2cnc3cnc4[nH]ccc4c32)CC1` (stereo not drawn) [Example 993, Cis-1-Methyl-4-(6H-1,3,5,6-tetraaza-as-indacen-1-yl)-cyclohexanol], the Ki is 0.00167 µM at JAK1, 0.004 µM at JAK2, 0.0241 µM on JAK3 and 0.00715 µM on TYK2.

`Cc1nc2cnc3[nH]ccc3c2n1C1CCC(C)(O)CC1` (stereo not drawn) [Example 994, Trans-1-Methyl-4-(2-methyl-6H-1,3,5,6-tetraaza-as-indacen-1-yl)-cyclohexanol]: the Ki at JAK1 amounted to 0.00291 µM; on JAK2 it was 0.00802 µM; at JAK3, 0.017 µM; at TYK2, 0.0253 µM.

For the compound `OC1(C2CC2)CCC(n2cnc3cnc4[nH]ccc4c32)CC1` (stereo not drawn) [Example 995, Trans-1-Cyclopropyl-4-(6H-1,3,5,6-tetraaza-as-indacen-1-yl)-cyclohexanol], the inhibition constant (Ki) on JAK1 was 0.00641 µM; on JAK2 it was 0.0137 µM; at JAK3, 0.0741 µM; on TYK2 it was 0.0321 µM.
